The values that follow come from patent publication US20240336654A1, “ANTIMICROBIAL PEPTIDOMIMETICS” (SPEXIS AG, priority 2021, published 2024).

Type in all cases: cell-based
For data set [1], the system named is Escherichia coli ATCC 25922. Particulars: ATCC 25922. An outline of the steps: (§1)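 MICs were determined by CLSI broth microdilution in cation-adjusted Mueller-Hinton II broth with about 5×10^5 CFU/mL inoculum. Peptides were tested in two-fold serial dilutions with 0.002% polysorbate 80 final. MIC in μg/mL is the lowest concentration with no visible growth after 18-20 h at 35 °C.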

The subject of data set [2] is Escherichia coli MCR-1 Af 45. Particulars: MCR-1 Af 45. In outline: as §1
The subject of data set [3] is Klebsiella pneumoniae SSI3010. Particulars: SSI3010. In outline: as §1
Data set [4] deals with human red blood cells (hRBC). Particulars: red cells of human, 1 h, 200 μg/mL. An outline of the steps:
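Peptides at 200 μg/mL incubated 1 h at 37 °C with 20% (v/v) washed human RBC, shaking. Hemolysis from supernatant OD540, expressed as percent of 2.5% Triton X-100 lysis, with PBS as 0%.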

Where a SMILES comes first, the peptide text is derived from it. Bridges are numbered along the chain shown (N, C = ends). [ ]: non-standard residue; d: D form. Hyp = O=C(O)[C@@H]1C[C@@H](O)CN1; Cit = NC(=O)NCCC[C@H](N)C(=O)O; Pen = CC(C)(S)[C@H](N)C(=O)O; dDab = NCC[C@@H](N)C(=O)O; Orn = NCCC[C@H](N)C(=O)O; Dab = NCC[C@H](N)C(=O)O

Turning to `CC[C@H](C)[C@@H]1NC(=O)[C@H]([C@@H](C)O)NC(=O)[C@H](CCCCN)NC(=O)[C@@H](CCN)NC(=O)[C@H]([C@@H](C)O)NC(=O)[C@H](CCN)NC(=O)[C@H](CCCNC(=N)N)NC(=O)[C@H](CC(N)=O)NC(=O)[C@H](CCN)NC(=O)[C@H](Cc2ccc(O)cc2)NC(=O)[C@@H](NC(=O)[C@@H](NC(=O)[C@@H]2C[C@@H](O)CN2C(=O)[C@@H](N)C(C)C)[C@@H](C)CC)C(C)(C)SSC[C@@H](C(=O)N[C@@H](Cc2ccc(O)cc2)C(=O)O)NC1=O` [Example 50, Val-Hyp-Ile-Pen-Tyr-Dab-Asn-Arg-Dab-Thr-^DDab-Lys-Thr-Ile-Cys-Tyr] (H-V[Hyp]I[Pen]Y[Dab]NR[Dab]T[dDab]KTICY-OH; disulfide 4-15), the “Escherichia coli ATCC 25922 MIC” value in data set [1] is 0.5 mg/L. Besides, the “Escherichia coli MCR-1 Af45 MIC” value in data set [2] came to 0.5 mg/L. The “Klebsiella pneumoniae SSI3010 MIC” value in data set [3] is recorded as 1 mg/L. The “Hemolysis at 0.2 g/L” value in data set [4] is less than 1%.
Regarding `CC[C@H](C)[C@H](NC(=O)[C@@H]1C[C@@H](O)CN1C(=O)[C@@H](N)C(C)C)C(=O)N[C@@H]1C(=O)N[C@@H](Cc2ccc(O)cc2)C(=O)N[C@@H](CCN)C(=O)N[C@@H](CC(N)=O)C(=O)N[C@@H](CCCNC(=N)N)C(=O)N[C@@H](CCN)C(=O)N[C@@H]([C@@H](C)O)C(=O)N[C@H](CCN)C(=O)N[C@@H](CCCCN)C(=O)N[C@@H]([C@@H](C)O)C(=O)N[C@@H](CC(N)=O)C(=O)N[C@H](C(=O)N[C@@H](Cc2ccc(O)cc2)C(=O)O)CSSC1(C)C` [Example 51, Val-Hyp-Ile-Pen-Tyr-Dab-Asn-Arg-Dab-Thr-^DDab-Lys-Thr-Asn-Cys-Tyr] (H-V[Hyp]I[Pen]Y[Dab]NR[Dab]T[dDab]KTNCY-OH; disulfide 4-15), the “Escherichia coli ATCC 25922 MIC” value in data set [1] is 0.25 mg/L. Further, the “Escherichia coli MCR-1 Af45 MIC” value in data set [2] came to 0.25 mg/L. For the same molecule, the “Klebsiella pneumoniae SSI3010 MIC” value in data set [3] is on record as 0.5 mg/L. For the same molecule, the “Hemolysis at 0.2 g/L” value in data set [4] is listed as less than 1%.
Consider `CC[C@H](C)[C@H](NC(=O)[C@@H]1C[C@@H](O)CN1C(=O)[C@@H](N)C(C)C)C(=O)N[C@@H]1C(=O)N[C@@H](Cc2ccc(O)cc2)C(=O)N[C@@H](CCN)C(=O)N[C@@H](CC(N)=O)C(=O)N[C@@H](CCCNC(=N)N)C(=O)N[C@@H](CCN)C(=O)N[C@@H]([C@@H](C)O)C(=O)N[C@H](CCN)C(=O)N[C@@H](CCCCN)C(=O)N[C@@H]([C@@H](C)O)C(=O)N[C@@H](CO)C(=O)N[C@H](C(=O)N[C@@H](Cc2ccc(O)cc2)C(=O)O)CSSC1(C)C` [Example 52, Val-Hyp-Ile-Pen-Tyr-Dab-Asn-Arg-Dab-Thr-^DDab-Lys-Thr-Ser-Cys-Tyr] (H-V[Hyp]I[Pen]Y[Dab]NR[Dab]T[dDab]KTSCY-OH; disulfide 4-15), for which the “Escherichia coli ATCC 25922 MIC” value in data set [1] turned out to be 0.25 mg/L. Also, the “Escherichia coli MCR-1 Af45 MIC” value in data set [2] is reported as 0.25 mg/L. For the same molecule, the “Klebsiella pneumoniae SSI3010 MIC” value in data set [3] stood at 1 mg/L. Also, the “Hemolysis at 0.2 g/L” value in data set [4] is recorded as less than 1%.
For `CC[C@H](C)[C@H](NC(=O)[C@@H]1C[C@@H](O)CN1C(=O)[C@@H](N)C(C)C)C(=O)N[C@@H]1C(=O)N[C@@H](Cc2ccc(O)cc2)C(=O)N[C@@H](CO)C(=O)N[C@@H](CC(N)=O)C(=O)N[C@@H](CCCNC(=N)N)C(=O)N[C@@H](CCN)C(=O)N[C@@H]([C@@H](C)O)C(=O)N[C@H](CCN)C(=O)N[C@@H](CCCCN)C(=O)N[C@@H](CCCNC(N)=O)C(=O)N[C@@H](CCN)C(=O)N[C@H](C(=O)N[C@@H](Cc2ccc(O)cc2)C(=O)O)CSSC1(C)C` [Example 53, Val-Hyp-Ile-Pen-Tyr-Ser-Asn-Arg-Dab-Thr-^DDab-Lys-Cit-Dab-Cys-Tyr] (H-V[Hyp]I[Pen]YSNR[Dab]T[dDab]K[Cit][Dab]CY-OH; disulfide 4-15), the “Escherichia coli ATCC 25922 MIC” value in data set [1] came to 0.25 mg/L. Also, the “Escherichia coli MCR-1 Af45 MIC” value in data set [2] turned out to be 0.25 mg/L. Moreover, in data set [3], the “Klebsiella pneumoniae SSI3010 MIC” value was determined as 1 mg/L. The “Hemolysis at 0.2 g/L” value in data set [4] was less than 1%.
Consider `CC[C@H](C)[C@H](NC(=O)[C@@H]1C[C@@H](O)CN1C(=O)[C@@H](N)C(C)C)C(=O)N[C@@H]1C(=O)N[C@@H](Cc2ccc(O)cc2)C(=O)N[C@@H](CO)C(=O)N[C@@H](CC(N)=O)C(=O)N[C@@H](CCCNC(=N)N)C(=O)N[C@@H](CCN)C(=O)N[C@@H]([C@@H](C)O)C(=O)N[C@H](CCN)C(=O)N[C@@H](CCCCN)C(=O)N[C@@H](CCCNC(=N)N)C(=O)N[C@@H](CCN)C(=O)N[C@H](C(=O)N[C@@H](Cc2ccc(O)cc2)C(=O)O)CSSC1(C)C` [Example 54, Val-Hyp-Ile-Pen-Tyr-Ser-Asn-Arg-Dab-Thr-^DDab-Lys-Arg-Dab-Cys-Tyr] (H-V[Hyp]I[Pen]YSNR[Dab]T[dDab]KR[Dab]CY-OH; disulfide 4-15), for which the “Escherichia coli ATCC 25922 MIC” value in data set [1] was determined as 0.125 mg/L. For the same molecule, the “Escherichia coli MCR-1 Af45 MIC” value in data set [2] was found to be 0.0625 mg/L. Also, in data set [3], the “Klebsiella pneumoniae SSI3010 MIC” value was 0.25 mg/L. Besides, the “Hemolysis at 0.2 g/L” value in data set [4] is reported as less than 1%.
For `CC[C@H](C)[C@H](NC(=O)[C@@H]1C[C@@H](O)CN1C(=O)[C@@H](N)C(C)C)C(=O)N[C@@H]1C(=O)N[C@@H](Cc2ccc(O)cc2)C(=O)N[C@@H](CO)C(=O)N[C@@H](CC(N)=O)C(=O)N[C@@H](CCCNC(=N)N)C(=O)N[C@@H](CCN)C(=O)N[C@@H]([C@@H](C)O)C(=O)N[C@H](CCN)C(=O)N[C@@H](CCCCN)C(=O)N[C@@H](CCCN)C(=O)N[C@@H](CO)C(=O)N[C@H](C(=O)N[C@@H](Cc2ccc(O)cc2)C(=O)O)CSSC1(C)C` [Example 55, Val-Hyp-Ile-Pen-Tyr-Ser-Asn-Arg-Dab-Thr-^DDab-Lys-Orn-Ser-Cys-Tyr] (H-V[Hyp]I[Pen]YSNR[Dab]T[dDab]K[Orn]SCY-OH; disulfide 4-15), in that order: 0.25 mg/L, 0.25 mg/L, 0.5 mg/L and less than 1%.
`CC[C@H](C)[C@H](NC(=O)[C@@H]1C[C@@H](O)CN1C(=O)[C@@H](N)C(C)C)C(=O)N[C@@H]1C(=O)N[C@@H](Cc2ccc(O)cc2)C(=O)N[C@@H](CCN)C(=O)N[C@@H](CC(N)=O)C(=O)N[C@@H](CCCNC(=N)N)C(=O)N[C@@H](CCN)C(=O)N[C@@H]([C@@H](C)O)C(=O)N[C@H](CCN)C(=O)N[C@@H](CCCCN)C(=O)N[C@@H](CCN)C(=O)N[C@@H](CO)C(=O)N[C@H](C(=O)N[C@@H](Cc2ccc(O)cc2)C(=O)O)CSSC1(C)C` [Example 56, Val-Hyp-Ile-Pen-Tyr-Dab-Asn-Arg-Dab-Thr-^DDab-Lys-Dab-Ser-Cys-Tyr] (H-V[Hyp]I[Pen]Y[Dab]NR[Dab]T[dDab]K[Dab]SCY-OH; disulfide 4-15): the “Escherichia coli ATCC 25922 MIC” value in data set [1] is 0.25 mg/L. Besides, in data set [2], the “Escherichia coli MCR-1 Af45 MIC” value is listed as 0.125 mg/L. Moreover, the “Klebsiella pneumoniae SSI3010 MIC” value in data set [3] turned out to be 0.25 mg/L. In addition, the “Hemolysis at 0.2 g/L” value in data set [4] is listed as less than 1%.
In the case of `CC[C@H](C)[C@H](NC(=O)[C@@H]1C[C@@H](O)CN1C(=O)[C@@H](N)C(C)C)C(=O)N[C@@H]1C(=O)N[C@@H](Cc2ccc(O)cc2)C(=O)N[C@@H](CO)C(=O)N[C@@H](CC(N)=O)C(=O)N[C@@H](CCCNC(=N)N)C(=O)N[C@@H](CCN)C(=O)N[C@@H]([C@@H](C)O)C(=O)N[C@H](CCN)C(=O)N[C@@H](CCCCN)C(=O)N[C@@H](CCN)C(=O)N[C@H](CCN)C(=O)N[C@H](C(=O)N[C@@H](Cc2ccc(O)cc2)C(=O)O)CSSC1(C)C` [Example 58, Val-Hyp-Ile-Pen-Tyr-Ser-Asn-Arg-Dab-Thr-^DDab-Lys-Dab-^DDab-Cys-Tyr] (H-V[Hyp]I[Pen]YSNR[Dab]T[dDab]K[Dab][dDab]CY-OH; disulfide 4-15), the “Escherichia coli ATCC 25922 MIC” value in data set [1] was 0.125 mg/L. Moreover, the “Escherichia coli MCR-1 Af45 MIC” value in data set [2] amounted to 0.125 mg/L. In addition, the “Klebsiella pneumoniae SSI3010 MIC” value in data set [3] is 0.25 mg/L. The “Hemolysis at 0.2 g/L” value in data set [4] is on record as less than 1%.
Consider `CC[C@H](C)[C@H](NC(=O)[C@@H]1C[C@@H](O)CN1C(=O)[C@@H](N)C(C)C)C(=O)N[C@@H]1C(=O)N[C@@H](Cc2ccc(O)cc2)C(=O)N[C@@H](CO)C(=O)N[C@@H](CC(N)=O)C(=O)N[C@@H](CCCNC(=N)N)C(=O)N[C@@H](CCN)C(=O)N[C@@H]([C@@H](C)O)C(=O)N[C@H](CCN)C(=O)N[C@@H](CCCCN)C(=O)N[C@@H](CCN)C(=O)N[C@@H](CCCNC(N)=O)C(=O)N[C@H](C(=O)N[C@@H](Cc2ccc(O)cc2)C(=O)O)CSSC1(C)C` [Example 59, Val-Hyp-Ile-Pen-Tyr-Ser-Asn-Arg-Dab-Thr-^DDab-Lys-Dab-Cit-Cys-Tyr] (H-V[Hyp]I[Pen]YSNR[Dab]T[dDab]K[Dab][Cit]CY-OH; disulfide 4-15), for which the “Escherichia coli ATCC 25922 MIC” value in data set [1] came to 0.25 mg/L. In addition, in data set [2], the “Escherichia coli MCR-1 Af45 MIC” value is given as 0.25 mg/L. Also, the “Klebsiella pneumoniae SSI3010 MIC” value in data set [3] turned out to be 0.5 mg/L. The “Hemolysis at 0.2 g/L” value in data set [4] is reported as less than 1%.
`CC[C@H](C)[C@H](NC(=O)[C@@H]1C[C@@H](O)CN1C(=O)[C@@H](N)C(C)C)C(=O)N[C@@H]1C(=O)N[C@@H](Cc2ccc(O)cc2)C(=O)N[C@@H](CO)C(=O)N[C@@H](CC(N)=O)C(=O)N[C@@H](CCCNC(=N)N)C(=O)N[C@@H](CCN)C(=O)N[C@@H]([C@@H](C)O)C(=O)N[C@H](CCN)C(=O)N[C@@H](CCCCN)C(=O)N[C@@H](CCN)C(=O)N[C@@H](Cc2ccc(O)cc2)C(=O)N[C@H](C(=O)N[C@@H](Cc2ccc(O)cc2)C(=O)O)CSSC1(C)C` [Example 60, Val-Hyp-Ile-Pen-Tyr-Ser-Asn-Arg-Dab-Thr-^DDab-Lys-Dab-Tyr-Cys-Tyr] (H-V[Hyp]I[Pen]YSNR[Dab]T[dDab]K[Dab]YCY-OH; disulfide 4-15): in data set [1], the “Escherichia coli ATCC 25922 MIC” value is recorded as 0.25 mg/L. In data set [2], the “Escherichia coli MCR-1 Af45 MIC” value came out at 0.25 mg/L. Besides, in data set [3], the “Klebsiella pneumoniae SSI3010 MIC” value stood at 1 mg/L. The “Hemolysis at 0.2 g/L” value in data set [4] is given as less than 1%.
